Biological target: T1, RNR (RNR1:RNR2 1:1) (Homo sapiens, UniProt P23921)
T1 sequence (P23921 1-792): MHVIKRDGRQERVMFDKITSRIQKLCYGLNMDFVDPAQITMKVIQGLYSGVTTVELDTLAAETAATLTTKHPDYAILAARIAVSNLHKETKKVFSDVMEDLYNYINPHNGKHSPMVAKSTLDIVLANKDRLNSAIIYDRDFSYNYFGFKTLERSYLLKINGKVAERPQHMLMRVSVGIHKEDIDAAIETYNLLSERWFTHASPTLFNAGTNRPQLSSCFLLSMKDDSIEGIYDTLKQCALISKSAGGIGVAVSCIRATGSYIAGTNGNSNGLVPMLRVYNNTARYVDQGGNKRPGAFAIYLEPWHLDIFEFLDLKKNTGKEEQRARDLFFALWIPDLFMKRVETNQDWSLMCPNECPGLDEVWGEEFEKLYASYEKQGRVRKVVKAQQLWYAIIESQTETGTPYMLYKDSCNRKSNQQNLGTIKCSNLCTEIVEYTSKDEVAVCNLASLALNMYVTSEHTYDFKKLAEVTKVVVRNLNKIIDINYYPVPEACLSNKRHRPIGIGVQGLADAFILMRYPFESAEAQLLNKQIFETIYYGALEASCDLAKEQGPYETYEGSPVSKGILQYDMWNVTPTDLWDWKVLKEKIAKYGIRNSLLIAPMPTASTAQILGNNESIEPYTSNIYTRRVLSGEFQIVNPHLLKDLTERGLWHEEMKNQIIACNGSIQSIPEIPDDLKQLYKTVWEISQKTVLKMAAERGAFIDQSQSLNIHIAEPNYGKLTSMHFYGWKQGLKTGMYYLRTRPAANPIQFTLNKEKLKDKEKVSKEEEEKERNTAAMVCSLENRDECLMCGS
Experiment: RNR enzyme activity, rapid-fire mass spectrometry (RFMS) assay
Type: biochemical
Details: RNR 50 nM, CDP 5 μM, ATP 1 mM, 37° C., 45 min, compounds screened up to 50 μM, read-out: RF/MS IC50
How it was run: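 Human RNR1:RNR2 (1:1, 50 nM) pre-incubated 15 min at room temperature with compound, then reacted with 5 μM CDP and 1 mM ATP, no NADPH, for 45 min at 37 °C. Stopped with 6% HCOOH; turnover read by rapid-fire mass spectrometry; Triapine and hydroxyurea as reference compounds.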

SMILES	IC50 [nM]
Cc1ccc(F)c([C@@H](C)[C@H](NS(=O)(=O)N2CCC3(CCCN(C)C3)CC2)c2n[nH]c(=O)o2)c1C [Example 83, N-((1S,2R)-2-(6-fluoro-2,3-dimethylphenyl)-1-(5-oxo-4,5-dihydro-1,3,4-oxadiazol-2-yl)propyl)-2-methyl-2,9-diazaspiro[5.5]undecane-9-sulfonamide]	1000 to 10000
Cc1ccc(F)c([C@@H](C)[C@H](NS(=O)(=O)N2CCC(c3nncn3C)CC2)c2n[nH]c(=O)o2)c1C [Example 52, N-((1S,2R)-2-(6-fluoro-2,3-dimethylphenyl)-1-(5-oxo-4,5-dihydro-1,3,4-oxadiazol-2-yl)propyl)-4-(4-methyl-4H-1,2,4-triazol-3-yl)piperidine-1-sulfonamide]	10000 to 100000
Cc1ccc(F)c([C@H](C)[C@H](NS(=O)(=O)N2CCC(Cl)(Cl)CC2)c2n[nH]c(=O)o2)c1C [Example 98, 4,4-dichloro-N-((1S,2S)-2-(6-fluoro-2,3-dimethylphenyl)-1-(5-oxo-4,5-dihydro-1,3,4-oxadiazol-2-yl)propyl)piperidine-1-sulfonamide]	1000 to 10000
Cc1ccc(F)c([C@@H](C)[C@H](NS(=O)(=O)N2CCC3(CCNC3=O)CC2)c2n[nH]c(=O)o2)c1C [Example 59, N-((1S,2R)-2-(6-fluoro-2,3-dimethylphenyl)-1-(5-oxo-4,5-dihydro-1,3,4-oxadiazol-2-yl)propyl)-1-oxo-2,8-diazaspiro[4.5]decane-8-sulfonamide]	10000 to 100000
Cc1ccc(F)c([C@H](C)[C@H](NS(=O)(=O)N2CC(C)CC(C)C2)c2n[nH]c(=O)o2)c1C (stereo partly drawn) [Example 122, N-((1S,2S)-2-(6-fluoro-2,3-dimethylphenyl)-1-(5-oxo-4,5-dihydro-1,3,4-oxadiazol-2-yl)propyl)-3,5-dimethylpiperidine-1-sulfonamide]	1000 to 10000
Cc1ccc(F)c([C@H](C)[C@H](NS(=O)(=O)N2CCC(Oc3ccccc3)CC2)c2n[nH]c(=O)o2)c1C [Example 54, N-((1S,2S)-2-(6-fluoro-2,3-dimethylphenyl)-1-(5-oxo-4,5-dihydro-1,3,4-oxadiazol-2-yl)propyl)-4-phenoxypiperidine-1-sulfonamide]	10000 to 100000
Cc1ccc(F)c([C@@H](C)[C@H](NS(=O)(=O)N2CCC(S(C)(=O)=O)CC2)c2n[nH]c(=O)o2)c1C [Example 51, N-((1S,2R)-2-(6-fluoro-2,3-dimethylphenyl)-1-(5-oxo-4,5-dihydro-1,3,4-oxadiazol-2-yl)propyl)-4-(methylsulfonyl)piperidine-1-sulfonamide]	10000 to 100000
Cc1ccc(F)c([C@H](C)[C@H](NS(=O)(=O)N2CCC3(CC2)CC(=O)N(C)C3)c2n[nH]c(=O)o2)c1C [Example 77, N-((1S,2S)-2-(6-fluoro-2,3-dimethylphenyl)-1-(5-oxo-4,5-dihydro-1,3,4-oxadiazol-2-yl)propyl)-2-methyl-3-oxo-2,8-diazaspiro[4.5]decane-8-sulfonamide]	10000 to 100000
CCN(CC1CC1)S(=O)(=O)N[C@H](c1n[nH]c(=O)o1)[C@H](C)c1c(F)ccc(C)c1C [Example 118]	1000 to 10000
Cc1ccc(F)c([C@H](C)[C@H](NS(=O)(=O)N2CCC(C(C)C)CC2)c2n[nH]c(=O)o2)c1C [Example 39, N-((1S,2S)-2-(6-fluoro-2,3-dimethylphenyl)-1-(5-oxo-4,5-dihydro-1,3,4-oxadiazol-2-yl)propyl)-4-isopropylpiperidine-1-sulfonamide]	1000 to 10000
Cc1ccc(F)c(C(C)[C@H](NS(=O)(=O)N2CCC(C(C)O)CC2)c2n[nH]c(=O)o2)c1C (stereo partly drawn) [Example 32, N-((1S)-2-(6-fluoro-2,3-dimethylphenyl)-1-(5-oxo-4,5-dihydro-1,3,4-oxadiazol-2-yl)propyl)-4-(1-hydroxyethyl)piperidine-1-sulfonamide]	1000 to 10000
Cc1ccc(F)c([C@@H](C)[C@H](NS(=O)(=O)N2CC(C)CC(C)C2)c2n[nH]c(=O)o2)c1C (stereo partly drawn) [Example 121, N-((1S,2R)-2-(6-fluoro-2,3-dimethylphenyl)-1-(5-oxo-4,5-dihydro-1,3,4-oxadiazol-2-yl)propyl)-3,5-dimethylpiperidine-1-sulfonamide]	1000 to 10000
COC1CCN(S(=O)(=O)N[C@H](c2n[nH]c(=O)o2)[C@@H](C)c2c(F)ccc(C)c2C)CC1 [Example 126, N-((1S,2S)-2-(6-fluoro-2,3-dimethylphenyl)-1-(5-oxo-4,5-dihydro-1,3,4-oxadiazol-2-yl)propyl)-4-methoxypiperidine-1-sulfonamide]	1000 to 10000
Cc1ccc(F)c([C@H](C)[C@H](NS(=O)(=O)N2CCC(C)(C)CC2)c2n[nH]c(=O)o2)c1C [Example 114, N-((1S,2S)-2-(6-fluoro-2,3-dimethylphenyl)-1-(5-oxo-4,5-dihydro-1,3,4-oxadiazol-2-yl)propyl)-4,4-dimethylpiperidine-1-sulfonamide]	1000 to 10000

Continued, values first:

IC50 [nM]	SMILES
100 to 1000	Cc1ccc(F)c(C(C)[C@H](NS(=O)(=O)N2CCC(O)(C(F)(F)F)CC2)c2n[nH]c(=O)o2)c1C (stereo partly drawn) [Example 89, N-((1S)-2-(6-fluoro-2,3-dimethylphenyl)-1-(5-oxo-4,5-dihydro-1,3,4-oxadiazol-2-yl)propyl)-4-hydroxy-4-(trifluoromethyl)piperidine-1-sulfonamide]
100 to 1000	Cc1ccc(F)c([C@@H](C)[C@H](NS(=O)(=O)N2CCC3(CCCCC3)CC2)c2n[nH]c(=O)o2)c1C [Example 87, N-((1S,2R)-2-(6-fluoro-2,3-dimethylphenyl)-1-(5-oxo-4,5-dihydro-1,3,4-oxadiazol-2-yl)propyl)-3-azaspiro[5.5]undecane-3-sulfonamide]
100 to 1000	Cc1ccc(F)c([C@@H](C)[C@H](NS(=O)(=O)N2CCCC(C(C)O)C2)c2n[nH]c(=O)o2)c1C (mixture of isomers) [Example 27, rac-N-((1R,2S)-2-(6-fluoro-2,3-dimethylphenyl)-1-(5-oxo-4,5-dihydro-1,3,4-oxadiazol-2-yl)propyl)-3-(1-hydroxyethyl)piperidine-1-sulfonamide]
100 to 1000	Cc1ccc(F)c([C@@H](C)[C@H](NS(=O)(=O)N2CCC(C)(C#N)CC2)c2n[nH]c(=O)o2)c1C [Example 81, 4-cyano-N-((1S,2R)-2-(6-fluoro-2,3-dimethylphenyl)-1-(5-oxo-4,5-dihydro-1,3,4-oxadiazol-2-yl)propyl)-4-methylpiperidine-1-sulfonamide]
100 to 1000	Cc1ccc(F)c([C@@H](C)[C@H](NS(=O)(=O)N2CCC(C(C)(C)C)CC2)c2n[nH]c(=O)o2)c1C [Example 131, 4-(tert-butyl)-N-((1S,2R)-2-(6-fluoro-2,3-dimethylphenyl)-1-(5-oxo-4,5-dihydro-1,3,4-oxadiazol-2-yl)propyl)piperidine-1-sulfonamide]
100 to 1000	Cc1ccc(F)c([C@@H](C)[C@H](NS(=O)(=O)N2CCc3ccccc3C2)c2n[nH]c(=O)o2)c1C [Example 135, N-((1S,2R)-2-(6-fluoro-2,3-dimethylphenyl)-1-(5-oxo-4,5-dihydro-1,3,4-oxadiazol-2-yl)propyl)-3,4-dihydroisoquinoline-2(1H)-sulfonamide]
100 to 1000	Cc1ccc(F)c(C(C)[C@H](NS(=O)(=O)N2CCC(F)(F)CC2C)c2n[nH]c(=O)o2)c1C (stereo partly drawn) [Example 111, 4,4-difluoro-N-((1S)-2-(6-fluoro-2,3-dimethylphenyl)-1-(5-oxo-4,5-dihydro-1,3,4-oxadiazol-2-yl)propyl)-2-methylpiperidine-1-sulfonamide]
